Assay results published in patent US20260053811A1, “METHODS OF TREATING HYPERTENSION IN OBESE SUBJECTS” (Mineralys Therapeutics, Inc., priority 2022, published 2026).

Test system: hypertensive subjects
Assay: Seated automated office blood pressure (AOBP) in randomized, placebo-controlled, dose-ranging study
Assay type: in vivo, human
Set-up: Difference from placebo in change in blood pressure: unit not given here
Experimental: A randomized, double-blinded, placebo-controlled, dose-ranging, multicenter study was conducted to evaluate the effect of orally administered Compound A HBr on blood pressure for the treatment of hypertension in male and female subjects ≥18 years of age.
The study consists of two parts. For enrollment into Part 1 of the study, a subject's value of plasma renin activity (PRA) must be ≤1 ng/mL/h based on morning measurement. If the value of PRA >1 ng/mL/h based on morning measurement, then subjects may be eligible to enter Part 2 of the study.
For Part 1, 163 enrolled subjects ≥18 years of age were randomized into 6 equal treatment groups (1:1:1:1:1:1) to 12.5 mg BID, 25 mg BID, 12.5 mg QD, 50 mg QD, 100 mg QD, or placebo. After a review of interim clinical data, the 2 lowest dose levels (12.5 mg QD and 12.5 mg BID) were stopped for future randomization due to a lack of consistent meaningful reduction of blood pressure, but the patients randomized to that point remained in the study through completion. Thus, after the review of interim clinical data, subjects were randomized into 4 equal treatment groups (1:1:1:1) to 25 mg BID, 50 mg QD, 100 mg QD, or placebo.
For Part 2, 36 enrolled subjects ≥18 years of age were randomized (5:1) to either 100 mg QD Compound A HBr or placebo such that the Compound A HBr treatment group consisted of approximately 30 subjects and the placebo treatment group will consist of approximately 6 subjects.
Subjects orally administered the assigned study drug (Compound A HBr or placebo) according to the assigned dosing regimen for 8 weeks beginning on Study Day 1. All subjects in Part 1 (regardless of dosing group) received BID dosing to preserve the integrity of the blind; active drug is administered as the morning dose for all QD dose groups. Subjects returned to the research facility or were seen by the clinical investigator or approved home health care professional at the end of Study Weeks 1, 2, 3, 4, 5, 6, 7, and 8 (±2 days) for protocol-defined efficacy and safety assessments and procedures, assessment of adverse events (AEs), and confirmation of compliance with study drug usage. Subjects also completed a telephone visit and blood pressure (BP) check at home approximately 3 days post last dose of study drug. Subjects attended up to 14 full clinic visits, including a pre-Screening visit, a Screening/start of Placebo Run-in visit, a second visit during Placebo Run-in, a clinic visit to initiate the ABPM procedure, a Randomization visit, 8 weekly visits during double-blind treatment, and an end-of-study visit scheduled 4 weeks after the last study treatment for final efficacy and safety assessments.
An automated oscillometric sphygmomanometer device was used to measure the subjects' systolic and diastolic blood pressure in office after approximately 5 minutes of rest in the seated position.
The primary endpoint is the change in office-measured (mean of last 2 of 5 unattended measurements using an automated oscillometric sphygmomanometer device after approximately 5 minutes of rest in the seated position) systolic blood pressure (SBP) from baseline to the end of Study Week 8.
Secondary endpoints of this study were: • (a) Change in 24-hour ambulatory blood pressure monitoring (ABPM) parameters (systolic and diastolic) from baseline to the end of Study Week 7. • (b) Change in office-measured SBP from baseline to the end of Study Weeks 1, 2, 3, 4, 5, 6, and 7. • (c) Change in office-measured diastolic blood pressure (DBP) from baseline to the end of Study Weeks 1, 2, 3, 4, 5, 6, 7, and 8. • (d) Proportion of subjects who achieve office-measured BP of ≤130/80 mm Hg by the end of Study Week 8.

[1] = 12.5 mg QD, Week 1, Part 1, FAS
[2] = 12.5 mg QD, Week 2, Part 1, FAS
[3] = 12.5 mg QD, Week 3, Part 1, FAS
[4] = 12.5 mg QD, Week 4, Part 1, FAS
[5] = 12.5 mg QD, Week 5, Part 1, FAS
[6] = 12.5 mg QD, Week 6, Part 1, FAS
[7] = 12.5 mg QD, Week 7, Part 1, FAS
[8] = 12.5 mg QD, Week 8, Part 1, FAS

CC(=O)N[C@H]1CC[C@H](NC(=O)CN2CCN(c3nncc(-c4ccc(C)cc4)n3)CC2)CC1 [Compound A HBr]
Difference from placebo in change in blood pressure (12.5 mg QD, BMI >30): −2.5
Difference from placebo in change in blood pressure (12.5 mg QD, Baseline BPsys Low tertile): −10.7
Difference from placebo in change in blood pressure (12.5 mg QD, Thiazide No): 2.6
Seated AOBP DBP change from baseline (CFB), Mean (SD) [1]: 2.87 (12.31) mmHg
Seated AOBP DBP, Mean (SD) [1]: 85.26 (13.88) mmHg
Seated AOBP SBP change from baseline (CFB), Mean (SD) [1]: −5.65 (13.96) mmHg
Seated AOBP SBP, Mean (SD) [1]: 141.43 (15.98) mmHg
Seated AOBP DBP change from baseline (CFB), Mean (SD) [2]: 0.68 (8.89) mmHg
Seated AOBP DBP, Mean (SD) [2]: 81.23 (9.21) mmHg
Seated AOBP SBP change from baseline (CFB), Mean (SD) [2]: −1.86 (16.36) mmHg
Seated AOBP SBP, Mean (SD) [2]: 143.73 (17.32) mmHg
Seated AOBP DBP change from baseline (CFB), Mean (SD) [3]: −1.20 (9.13) mmHg
Seated AOBP DBP, Mean (SD) [3]: 81.80 (13.73) mmHg
Seated AOBP SBP change from baseline (CFB), Mean (SD) [3]: −4.15 (13.14) mmHg
Seated AOBP SBP, Mean (SD) [3]: 142.80 (18.14) mmHg
LSM Δ with Placebo, seated AOBP DBP (MMRM) [4]: −1.96 mmHg
Modelled (MMRM) LSM (SEM) change from baseline, seated AOBP DBP [4]: −2.50 (1.60) mmHg
Seated AOBP DBP change from baseline (CFB), Mean (SD) [4]: −1.80 (9.84) mmHg
Seated AOBP DBP, Mean (SD) [4]: 81.20 (14.03) mmHg
Seated AOBP SBP change from baseline (CFB), Mean (SD) [4]: −3.95 (15.74) mmHg
Seated AOBP SBP, Mean (SD) [4]: 143.00 (18.03) mmHg
Seated AOBP DBP change from baseline (CFB), Mean (SD) [5]: 0.82 (14.46) mmHg
Seated AOBP DBP, Mean (SD) [5]: 83.74 (14.32) mmHg
Seated AOBP SBP change from baseline (CFB), Mean (SD) [5]: −3.53 (12.49) mmHg
Seated AOBP SBP, Mean (SD) [5]: 144.21 (13.11) mmHg
Seated AOBP DBP change from baseline (CFB), Mean (SD) [6]: −4.17 (10.04) mmHg
Seated AOBP DBP, Mean (SD) [6]: 79.06 (13.07) mmHg
Seated AOBP SBP change from baseline (CFB), Mean (SD) [6]: −8.64 (16.52) mmHg
Seated AOBP DBP change from baseline (CFB), Mean (SD) [7]: −6.11 (12.05) mmHg
Seated AOBP DBP, Mean (SD) [7]: 77.11 (12.74) mmHg
Seated AOBP SBP change from baseline (CFB), Mean (SD) [7]: −11.08 (19.26) mmHg
Seated AOBP SBP, Mean (SD) [7]: 136.56 (19.58) mmHg
LSM Δ from Placebo, change from baseline in seated AOBP SBP (MMRM) [8]: −1.53 mmHg
LSM Δ with Placebo, seated AOBP DBP (MMRM) [8]: −2.12 mmHg
Modelled (MMRM) LSM (SEM) change from baseline, seated AOBP DBP [8]: −3.76 (2.02) mmHg
Modelled (MMRM) LSM (SEM) change from baseline, seated AOBP SBP [8]: −5.63 (3.16) mmHg
Seated AOBP DBP change from baseline (CFB), Mean (SD) [8]: −1.78 (13.33) mmHg
Seated AOBP DBP, Mean (SD) [8]: 81.44 (17.24) mmHg
Seated AOBP SBP change from baseline (CFB), Mean (SD) [8]: −6.86 (19.85) mmHg
Seated AOBP SBP, Mean (SD) [8]: 140.78 (22.01) mmHg
Subjects with seated AOBP SBP/DBP ≤130/80 mmHg: No [8]: 17 (73.9) n (%)
Subjects with seated AOBP SBP/DBP ≤130/80 mmHg: Yes [8]: 6 (26.1) n (%)
Difference from placebo in change in blood pressure (25 mg BID, BMI 25-30): −1.1
Difference from placebo in change in blood pressure (25 mg BID, BMI >30): −9.1
Proportion of subjects with AOBP ≤130/80 mmHg (25 mg BID, Part 1, Week 8): 43.3%
Difference from placebo in change in blood pressure (25 mg BID, Thiazide No): −4.7
